Laboratory results published in patent US20150126467A1, “USE OF ALGINATE OLIGOMERS TO ENHANCE THE EFFECTS OF ANTIFUNGAL AGENTS” (AlgiIPharma AS, priority 2011, published 2015).
Values after ≈ are worked out from the molar mass of the structure shown. Read-outs that look alike come from different tables or passages of the source.

Columns and labels:
[1] = test system: Candida albicans, CCUG 39343; assay: Robotic MIC assay (Example 1); format: cell-based; settings: for MIC: Candida albicans, CCUG39343, 24 h, 24 hours, read-out: Minimum Inhibitory Concentration (MIC); for reduction in MIC values: comparing 0 and 10% G-block
Experimental: (§1) A robotic MIC Assay was performed as follows. OligoG CF-5/20 were dissolved in medium (Mueller-Hinton broth or M19 broth depending on experiment) to 1.25 times of the desired assay concentrations (2, 6 and 10%). The antifungal agents under test were dissolved in medium without OligoG CF-5/20 and in medium with OligoG CF-5/20 at a concentration of 1.25 times the highest desired assay concentrations. For experiments where the effect of adding different concentrations of Na^+ was investigated, NaCl was dissolved in medium to the desired concentrations (10, 30 and 50 mM).
(§2) Two-fold serial dilutions of antifungal agents were made in medium with different concentrations of OligoG CF-5/20, and the solutions were placed in four parallel wells in Nunc 384-well micro plates (30 μl per well in Nunc 242757 microplates). A group of 8 wells with no addition of antifungal agents for each OligoG CF-5/20 concentration was included on each microplate as growth reference. To each well in the 384-well assay plates was added 7.5 μl of medium inoculated with a frozen stock culture of Candida albicans (strain CCUG 39343).
The frozen stock culture was prepared by growing the Candida strain at 34° C. for 48 h on YM-agar. 1-3 colonies from the plates were grown in 6 ml YM-broth at 34° C. for 14 h before freezing in 6% glycerol at −80° C. Each batch of frozen stock culture was then characterized in separate growth experiments using Mueller-Hinton or M19 broth to determine the minimum amount of inoculum giving satisfactory growth after 48 h under the conditions relevant for the MIC assay. This inoculation procedure is used in order to reduce day to day variation in bioassays.
(§3) The micro plates were placed in plastic bags and incubated without shaking at 34° C. The optical density at 600 nm in the microwells was measured after approximately 13, 18, 24 and 34 hours of incubation, and the relative growth yield in each well was calculated based on the growth in the reference groups.

Candida albicans = assay: Robotic MIC assay with asthma/COPD medicaments (Example 5); format: cell-based; settings: Mueller-Hinton broth; for MIC: Candida albicans, 24 h
Experimental: as §1, §2, §3
The robotic assay described in Example 1 was employed in this Example. […] The concentration utilized for the different components were based on information from Manocha et al. (2006).
In this assay only Mueller-Hinton broth was used since this is the medium specified for standardized MIC assays (Jorgensen et al., 1999).

[2] = test system: C. parapsillosis ATCC 22019T; assay: Standard MIC testing in RPMI medium (Example 3); format: cell-based, Candida parapsilosis; settings: Lodderomyces parapsilosis, ATCC2019, 48 h, C. Parapsillosis ATCC 2019^T, read-out: Minimum Inhibitory Concentration (MIC)
Experimental: (§4) Following retrieval from −80° C. storage, fungal colonies were grown on blood agar with 5% sheep blood and were used to inoculate tryptone soya broth (TSB) for overnight growth. […] Fungal cultures at 0.5 McFarland standard were diluted ten-fold in RPMI medium and 5 μl added to the media containing wells of the microtiter plates. Plates were wrapped in parafilm and incubated at 34° C. for 48 hours. MIC values were determined as the lowest concentration at which there was no visible growth.

[3] = test system: C. krusei 249/03(2) (ulceration); assay: Standard MIC testing in RPMI medium (Example 3); format: cell-based, Candida krusei; settings: 48 h
Experimental: as §4

[4] = test system: C. tropicalis 12 (vaginal); assay: Standard MIC testing in RPMI medium (Example 3); format: cell-based; settings: Candida tropicalis, 48 h, read-out: Minimum Inhibitory Concentration (MIC)
Experimental: as §4

[5] = test system: C. tropicalis 519468 (urinary); assay: Standard MIC testing in RPMI medium (Example 3); format: cell-based; settings: Candida tropicalis, 48 h, read-out: Minimum Inhibitory Concentration (MIC)
Experimental: (§5) The Minimum Inhibitory Concentration assay used in this Example was based on Jorgensen et al. (Manual of Clinical Microbiology, 7th ed. Washington, D.C: American Society for Microbiology, 1999; 1526-43). Following retrieval from −80° C. storage, fungal colonies were grown on blood agar with 5% sheep blood and were used to inoculate tryptone soya broth (TSB) for overnight growth. […] Fungal cultures at 0.5 McFarland standard were diluted ten-fold in RPMI medium and 5 μl added to the media containing wells of the microtiter plates. Plates were wrapped in parafilm and incubated at 34° C. for 48 hours. MIC values were determined as the lowest concentration at which there was no visible growth.

[6] = test system: C. tropicalis 250/03 (candidosis); assay: Standard MIC testing in RPMI medium (Example 3); format: cell-based; settings: Candida tropicalis, 48 h, read-out: Minimum Inhibitory Concentration (MIC)
Experimental: as §5

In the case of `C[C@@H]1[C@H](O)[C@@H](C)/C=C/C=C/C=C/C=C/C=C/C=C/C=C/[C@H](O[C@@H]2O[C@H](C)[C@@H](O)[C@H](N)[C@@H]2O)C[C@@H]2O[C@](O)(C[C@@H](O)C[C@@H](O)[C@H](O)CC[C@@H](O)C[C@@H](O)CC(=O)O[C@H]1C)C[C@H](O)[C@H]2C(=O)O` [Amphotericin B, amphotericin B], the MIC ([1]; M19, NaCl 0 mM) is reported as 1.2 µg/mL (≈ 1.3 µM), the MIC ([1]; M19, NaCl 10 mM) is reported as 0.3 µg/mL (≈ 0.325 µM) and the MIC ([1]; M19, NaCl 30 mM) is reported as 0.3 µg/mL (≈ 0.325 µM). The MIC ([1]; M19, NaCl 50 mM) was 0.3 µg/mL (≈ 0.325 µM), the MIC ([1]; M19, OligoG CF 5/20 0%) was 1.2 µg/mL (≈ 1.3 µM) and the MIC ([1]; M19, OligoG CF 5/20 2%) was 0.3 µg/mL (≈ 0.325 µM). The MIC ([1]; M19, OligoG CF 5/20 6%) was 0.075 µg/mL (≈ 0.0812 µM), the MIC ([1]; M19, OligoG CF 5/20 10%) was 0.0375 µg/mL (≈ 0.0406 µM) and the MIC ([1]; Mueller-Hinton, NaCl 0 mM) was 0.15 µg/mL (≈ 0.162 µM). It also gave an MIC ([1]; Mueller-Hinton, NaCl 10 mM) of 0.15 µg/mL (≈ 0.162 µM), an MIC ([1]; Mueller-Hinton, NaCl 30 mM) of 0.15 µg/mL (≈ 0.162 µM) and an MIC ([1]; Mueller-Hinton, NaCl 50 mM) of 0.15 µg/mL (≈ 0.162 µM). For the same molecule, the MIC ([1]; Mueller-Hinton, OligoG CF 5/20 0%) was 0.15 µg/mL (≈ 0.162 µM), the MIC ([1]; Mueller-Hinton, OligoG CF 5/20 2%) was 0.15 µg/mL (≈ 0.162 µM) and the MIC ([1]; Mueller-Hinton, OligoG CF 5/20 6%) was 0.0375 µg/mL (≈ 0.0406 µM). The MIC ([1]; Mueller-Hinton, OligoG CF 5/20 10%) was 0.0094 µg/mL (≈ 0.0102 µM), the “reduction in MIC values” ([1]; M19) was 32 × and the “reduction in MIC values” ([1]; Mueller-Hinton) was 16 ×. For the same molecule, the “effect of addition of OligoG CF-5/20 on MIC values” ([1]; both media tested (M19, Mueller-Hinton)) was “reduction in MIC values”, the MIC (Candida albicans; no medicament added, G-block 0%) was 0.0938 µg/mL (≈ 0.102 µM) and the MIC (Candida albicans; no medicament added, G-block 2%) was 0.0938 µg/mL (≈ 0.102 µM). It also gave an MIC (Candida albicans; no medicament added, G-block 6%) of 0.0469 µg/mL (≈ 0.0508 µM), an MIC (Candida albicans; no medicament added, G-block 10%) of 0.0234 µg/mL (≈ 0.0253 µM) and an MIC (Candida albicans; with Budesonide 0.01 mM, G-block 0%) of 0.0938 µg/mL (≈ 0.102 µM). The MIC (Candida albicans; with Budesonide 0.01 mM, G-block 2%) was 0.0938 µg/mL (≈ 0.102 µM), the MIC (Candida albicans; with Budesonide 0.01 mM, G-block 6%) was 0.0469 µg/mL (≈ 0.0508 µM) and the MIC (Candida albicans; with Budesonide 0.01 mM, G-block 10%) was 0.0469 µg/mL (≈ 0.0508 µM). For the same molecule, the MIC (Candida albicans; with Formoterol 0.5 mM (2% DMSO), G-block 0%) was 0.0469 µg/mL (≈ 0.0508 µM), the MIC (Candida albicans; with Formoterol 0.5 mM (2% DMSO), G-block 2%) was 0.0469 µg/mL (≈ 0.0508 µM) and the MIC (Candida albicans; with Formoterol 0.5 mM (2% DMSO), G-block 6%) was 0.0234 µg/mL (≈ 0.0253 µM). The MIC (Candida albicans; with Formoterol 0.5 mM (2% DMSO), G-block 10%) was 0.0117 µg/mL (≈ 0.0127 µM), the MIC (Candida albicans; with Ipratropium bromide 0.01 mM, G-block 0%) was 0.0938 µg/mL (≈ 0.102 µM) and the MIC (Candida albicans; with Ipratropium bromide 0.01 mM, G-block 2%) was 0.0469 µg/mL (≈ 0.0508 µM). It also gave an MIC (Candida albicans; with Ipratropium bromide 0.01 mM, G-block 6%) of 0.0234 µg/mL (≈ 0.0253 µM), an MIC (Candida albicans; with Ipratropium bromide 0.01 mM, G-block 10%) of 0.0117 µg/mL (≈ 0.0127 µM) and an MIC (Candida albicans; with Ipratropium bromide 1 mM, G-block 0%) of 0.188 µg/mL (≈ 0.203 µM). The MIC (Candida albicans; with Ipratropium bromide 1 mM, G-block 2%) was 0.0938 µg/mL (≈ 0.102 µM), the MIC (Candida albicans; with Ipratropium bromide 1 mM, G-block 6%) was 0.0469 µg/mL (≈ 0.0508 µM) and the MIC (Candida albicans; with Ipratropium bromide 1 mM, G-block 10%) was 0.0234 µg/mL (≈ 0.0253 µM). It also gave an MIC (Candida albicans; with Salbutamol 0.01 mM, G-block 0%) of 0.0469 µg/mL (≈ 0.0508 µM), an MIC (Candida albicans; with Salbutamol 0.01 mM, G-block 2%) of 0.0469 µg/mL (≈ 0.0508 µM) and an MIC (Candida albicans; with Salbutamol 0.01 mM, G-block 6%) of 0.0234 µg/mL (≈ 0.0253 µM). It also gave an MIC (Candida albicans; with Salbutamol 0.01 mM, G-block 10%) of 0.0117 µg/mL (≈ 0.0127 µM), an MIC (Candida albicans; with Salbutamol 1 mM, G-block 0%) of 0.0469 µg/mL (≈ 0.0508 µM) and an MIC (Candida albicans; with Salbutamol 1 mM, G-block 2%) of 0.0469 µg/mL (≈ 0.0508 µM). For the same molecule, the MIC (Candida albicans; with Salbutamol 1 mM, G-block 6%) was 0.0234 µg/mL (≈ 0.0253 µM), the MIC (Candida albicans; with Salbutamol 1 mM, G-block 10%) was 0.0117 µg/mL (≈ 0.0127 µM) and the “reduction in MIC values” (Candida albicans; addition of 10% OligoG CF-5/20 compared to without OligoG CF-5/20) was 4 ×.

`OC(Cn1cncn1)(Cn1cncn1)c1ccc(F)cc1F` [Fluconazole, fluconazole] was tested, and the MIC ([2]; 0% OligoG) was 2 µg/mL (≈ 6.53 µM), the MIC ([2]; 2% OligoG) was 2 µg/mL (≈ 6.53 µM) and the MIC ([2]; 6% OligoG) was 2 µg/mL (≈ 6.53 µM). For the same molecule, the MIC ([2]; 10% OligoG) was 1 µg/mL (≈ 3.27 µM), the “Minimum Inhibitory Concentration (MIC)” value ([3]; 0% OligoG) was 4 µg/mL and the “Minimum Inhibitory Concentration (MIC)” value ([3]; 6% OligoG) was 4 µg/mL. For the same molecule, the “Minimum Inhibitory Concentration (MIC)” value ([3]; 10% OligoG) was 4 µg/mL, the MIC ([3]; Pichia kudriavzevii, 2% OligoG, read-out: Minimum Inhibitory Concentration (MIC)) was 4 µg/mL (≈ 13.1 µM) and the MIC ([4]; 0% OligoG) was 128 µg/mL (≈ 418 µM). For the same molecule, the MIC ([4]; 2% OligoG) was 128 µg/mL (≈ 418 µM), the MIC ([4]; 6% OligoG) was 4 µg/mL (≈ 13.1 µM) and the MIC ([4]; 10% OligoG) was 1 µg/mL (≈ 3.27 µM). For the same molecule, the MIC ([5]; 6% OligoG) was 2 µg/mL (≈ 6.53 µM), the MIC ([5]; 10% OligoG) was 1 µg/mL (≈ 3.27 µM) and the MIC ([6]; 0% OligoG) was 4 µg/mL (≈ 13.1 µM). For the same molecule, the MIC ([6]; 2% OligoG) was 4 µg/mL (≈ 13.1 µM), the MIC ([6]; 6% OligoG) was 4 µg/mL (≈ 13.1 µM) and the MIC ([6]; 10% OligoG) was 2 µg/mL (≈ 6.53 µM).
